Measurements published in patent US20250052744A1, “Dyes and Uses Thereof” (The University of Liverpool, priority 2021, published 2025).

Assays:
Enterococcus faecium = assay: Qualitative dye staining on agarose pads (EVOS M7000); type: cell-based; set-up: key to Relative fluorescent intensity: Very high: If the cells looked twice as big in the fluorescent channel, it was marked as having “very high” relative fluorescent intensity; High: if the cells looked bigger in the fluorescent channel, it was marked as having “high” relative fluorescent intensity; Medium: If the cells looked almost the same size in the fluorescent channel and the bright field, it was marked as having “medium” relative fluorescent intensity; Low: If the cells looked smaller in the fluorescent channel as compared to the brightfield but still the whole cell was visible, it was marked as having “low” relative fluorescent intensity; Negligible: If only a few traces of a cell was visible in the fluorescent channel, it was marked as having “negligible” relative fluorescent intensity; conditions: DiSC3(5) 3 μM, SYBR Green I 10×, SYTO 13 3 μM, FM4-64 15 μM
Staphylococcus aureus = assay: as above; type: cell-based; set-up: key to Relative fluorescent intensity: Very high: If the cells looked twice as big in the fluorescent channel, it was marked as having “very high” relative fluorescent intensity; High: if the cells looked bigger in the fluorescent channel, it was marked as having “high” relative fluorescent intensity; Medium: If the cells looked almost the same size in the fluorescent channel and the bright field, it was marked as having “medium” relative fluorescent intensity; Low: If the cells looked smaller in the fluorescent channel as compared to the brightfield but still the whole cell was visible, it was marked as having “low” relative fluorescent intensity; Negligible: If only a few traces of a cell was visible in the fluorescent channel, it was marked as having “negligible” relative fluorescent intensity; conditions: DiSC3(5) 3 μM, SYBR Green I 10×, SYTO 13 3 μM, FM4-64 15 μM
[1] = Table 7 commercial strain Enterococcus faecium NCTC 7171
[2] = Table 7 commercial strain Enterococcus faecium NCTC 13923
[3] = Table 8 sample Enterococcus faecium (011)
[4] = Table 8 sample Enterococcus faecium (012)
[5] = Table 8 sample Enterococcus faecium (013)
[6] = Table 6 thresholds, Staphylococcus aureus
[7] = Table 7 commercial strain S. Aureus NCTC 9369
[8] = Table 7 commercial strain S. aureus NCTC 8532
[9] = Table 8 sample Staphylococcus aureus (041)
[10] = Table 8 sample Staphylococcus aureus (042)
[11] = Table 8 sample Staphylococcus aureus (043)

With `CCCN1C(=CC=CC=Cc2sc3ccccc3[n+]2CCC)Sc2ccccc21.[I-]` [DiSC3(5), 3,3′-Dipropylthiadicarbocyanine Iodide] the “Percentage of cells stained” value (Enterococcus faecium; [1]) was “Almost all”, the Relative fluorescent intensity (Enterococcus faecium; [1]) was “Low” and the “Percentage of cells stained” value (Enterococcus faecium; [2]) was “Almost all”. The Relative fluorescent intensity (Enterococcus faecium; [2]) was “Low”, the “Percentage of cells stained” value (Enterococcus faecium; [3]) was “Almost all” and the Relative fluorescent intensity (Enterococcus faecium; [3]) was “Low”. The “Percentage of cells stained” value (Enterococcus faecium; [4]) was “Almost all”, the Relative fluorescent intensity (Enterococcus faecium; [4]) was “Low” and the “Percentage of cells stained” value (Enterococcus faecium; [5]) was “Half”. The Relative fluorescent intensity (Enterococcus faecium; [5]) was “Low”, the “Percentage of cells stained” value (Staphylococcus aureus; [6]) was “Almost all” and the Relative fluorescent intensity (Staphylococcus aureus; [6]) was “high and High”. The “Percentage of cells stained” value (Staphylococcus aureus; [7]) was “Almost all”, the Relative fluorescent intensity (Staphylococcus aureus; [7]) was “High” and the “Percentage of cells stained” value (Staphylococcus aureus; [8]) was “Almost all”. The Relative fluorescent intensity (Staphylococcus aureus; [8]) was “High”, the “Percentage of cells stained” value (Staphylococcus aureus; [9]) was “Almost all” and the Relative fluorescent intensity (Staphylococcus aureus; [9]) was “High”. For the same molecule, the “Percentage of cells stained” value (Staphylococcus aureus; [10]) was “Almost all”, the Relative fluorescent intensity (Staphylococcus aureus; [10]) was “High” and the “Percentage of cells stained” value (Staphylococcus aureus; [11]) was “Almost all”. The Relative fluorescent intensity (Staphylococcus aureus; [11]) was “High”.
For `CCN(CC)c1ccc(C=CC=CC=Cc2cc[n+](CCC[N+](CC)(CC)CC)cc2)cc1.[Br-].[Br-]` [FM 4-64, N-(3-Triethylammoniumpropyl)-4-(6-(4-(Diethylamino) Phenyl) Hexatrienyl) Pyridinium Dibromide], the “Percentage of cells stained” value (Enterococcus faecium; [1]) was “Half”, the Relative fluorescent intensity (Enterococcus faecium; [1]) was “Medium” and the “Percentage of cells stained” value (Enterococcus faecium; [2]) was “Half”. For the same molecule, the Relative fluorescent intensity (Enterococcus faecium; [2]) was “Medium”, the “Percentage of cells stained” value (Enterococcus faecium; [3]) was “Half” and the Relative fluorescent intensity (Enterococcus faecium; [3]) was “Medium”. For the same molecule, the “Percentage of cells stained” value (Enterococcus faecium; [4]) was “Half”, the Relative fluorescent intensity (Enterococcus faecium; [4]) was “Medium” and the “Percentage of cells stained” value (Enterococcus faecium; [5]) was “Almost all”. The Relative fluorescent intensity (Enterococcus faecium; [5]) was “Medium”, the “Percentage of cells stained” value (Staphylococcus aureus; [6]) was “Almost all” and the Relative fluorescent intensity (Staphylococcus aureus; [6]) was “Medium-high”. The “Percentage of cells stained” value (Staphylococcus aureus; [7]) was “Almost all”, the Relative fluorescent intensity (Staphylococcus aureus; [7]) was “High” and the “Percentage of cells stained” value (Staphylococcus aureus; [8]) was “Almost all”. For the same molecule, the Relative fluorescent intensity (Staphylococcus aureus; [8]) was “Medium”, the “Percentage of cells stained” value (Staphylococcus aureus; [9]) was “Almost all” and the Relative fluorescent intensity (Staphylococcus aureus; [9]) was “High”. For the same molecule, the “Percentage of cells stained” value (Staphylococcus aureus; [10]) was “Almost all”, the Relative fluorescent intensity (Staphylococcus aureus; [10]) was “Medium” and the “Percentage of cells stained” value (Staphylococcus aureus; [11]) was “Almost all”. For the same molecule, the Relative fluorescent intensity (Staphylococcus aureus; [11]) was “Medium”.
`CCCN(CCCN(C)C)c1cc(/C=C2/Sc3ccccc3N2C)c2ccccc2[n+]1-c1ccccc1` [SYBR Green I, N′,N′-dimethyl-N-[4-[(E)-(3-methyl-1,3-benzothiazol-2-ylidene)methyl]-1-phenylquinolin-1-ium-2-yl]-N-propylpropane-1,3-diamine] was tested, and the “Percentage of cells stained” value (Enterococcus faecium; [1]) was “Almost all”, the Relative fluorescent intensity (Enterococcus faecium; [1]) was “High” and the “Percentage of cells stained” value (Enterococcus faecium; [2]) was “Almost all”. For the same molecule, the Relative fluorescent intensity (Enterococcus faecium; [2]) was “High”, the “Percentage of cells stained” value (Enterococcus faecium; [3]) was “Almost all” and the Relative fluorescent intensity (Enterococcus faecium; [3]) was “High”. For the same molecule, the “Percentage of cells stained” value (Enterococcus faecium; [4]) was “Almost all”, the Relative fluorescent intensity (Enterococcus faecium; [4]) was “High” and the “Percentage of cells stained” value (Enterococcus faecium; [5]) was “Almost all”. For the same molecule, the Relative fluorescent intensity (Enterococcus faecium; [5]) was “High”, the “Percentage of cells stained” value (Staphylococcus aureus; [6]) was “Almost all” and the Relative fluorescent intensity (Staphylococcus aureus; [6]) was “high”. The Relative fluorescent intensity (Staphylococcus aureus; Table 6 thresholds, Staphylococcus aureus, listed as SYBR Green) was “High”, the “Percentage of cells stained” value (Staphylococcus aureus; [7]) was “Almost all” and the Relative fluorescent intensity (Staphylococcus aureus; [7]) was “High”. For the same molecule, the “Percentage of cells stained” value (Staphylococcus aureus; [8]) was “Almost all”, the Relative fluorescent intensity (Staphylococcus aureus; [8]) was “High” and the “Percentage of cells stained” value (Staphylococcus aureus; [9]) was “Almost all”. The Relative fluorescent intensity (Staphylococcus aureus; [9]) was “High”, the “Percentage of cells stained” value (Staphylococcus aureus; [10]) was “Almost all” and the Relative fluorescent intensity (Staphylococcus aureus; [10]) was “High”. For the same molecule, the “Percentage of cells stained” value (Staphylococcus aureus; [11]) was “Almost all” and the Relative fluorescent intensity (Staphylococcus aureus; [11]) was “High”.
